# Tests used:
# [1] = system: patients with advanced, refractory solid tumours; assay: Phase I dose-escalation study J102 (Japan): safety, DLT, MTD; format: in vivo
# From the text: Studies were approved by the Institutional Review Board at the participating institutions and regulatory authorities. Written informed consent in English and Japanese was obtained from all patients prior to enrollment.
# Secondary and exploratory objectives were to evaluate PK, tumour response, and PD effects. Treatment-emergent adverse events (TEAE) were graded using the Common Terminology Criteria for Adverse Events version 4.0. A dose-limiting toxicity (DLT) was defined as a grade ≥3 clinically significant toxicity, with the exceptions of grade ≥4 anaemia and prolonged grade 3 neutropenia. Both studies were open-label, phase I dose-escalation studies. In Japan, the study was conducted at a single centre, while the US study was conducted at three sites. […] In the US, an accelerated titration design was used at low doses followed by a mCRM with EWOC. Briefly, the dose was escalated based on safety data in a single patient until a grade 2 or higher toxicity was observed during cycle 1 or the DLT period (days 1–28). […] Prophylactic granulocyte colony-stimulating factor and antiemetics were not permitted during cycle 1.
# [2] = Pharmacokinetics in US cohort (U101); format: in vivo, human
# Protocol: (§1) In both studies, the PK profile of DS-7423 was characterised during cycle 1 on days 1 and 8. For PD analysis, glucose, C-peptide, and Akt phosphorylation were measured in platelet-rich plasma collected at predose, 1, 2, 4, 6, and 24 h after dosing on days 1 and 15. Tumour assessment was performed every two cycles using Response Evaluation Criteria in Solid Tumours (RECIST) version 1.1 in both studies. 18F-Fluoro-2-deoxy-D-glucose positron emission tomography ([18F]-FDG) was performed as an exploratory endpoint at baseline and on day 4.[10]
# The data cut-off for the primary analysis occurred after all patients had either discontinued the study or completed 6 months of study drug treatment. Descriptive statistics were provided for selected demographic, safety, PK, and PD data by dose and time as appropriate. Descriptive statistics on continuous data included means, medians, standard deviations, and ranges, while categorical data were summarised using frequency counts and percentages. No inferential analysis to compare dose levels was performed due to limited sample sizes. The WinNonlin software was used for PK analysis.
# advanced solid tumours [3] = assay: Tumour assessment RECIST 1.1, US study; format: in vivo, human; details: of 27 patients
# Protocol: as §1
# advanced solid tumours [4] = assay: Tumour assessment RECIST 1.1, Japanese study; format: in vivo, human; details: Japan; of 25 patients
# Protocol: as §1
# glucose = assay: Pharmacodynamics: glucose after dosing; format: in vivo, human; details: decreased toward baseline at 24 h
# Protocol: as §1
# Akt phosphorylation = assay: Pharmacodynamics: Akt phosphorylation in platelet-rich plasma; format: in vivo, human; details: pre-treatment vs post-treatment, 32 patients
# Protocol: as §1
# [5] = 96 mg, Japanese cohort (56–96 mg group, n = 6)
# [6] = 4–32 mg Japanese cohort (n = 12)
# [7] = 56–96 mg Japanese cohort (n = 6)
# [8] = dose level 4, US cohort (n = 1)
# [9] = dose level 8, US cohort (n = 1)
# [10] = dose level 16, US cohort (n = 3)
# [11] = dose level 160, US cohort (n = 4)
# [12] = dose level 240, US cohort (n = 7)
smiles,measurement,setting,value
CC(=O)N1CCN(c2nc3c(N4CCOCC4)nc(-c4cnc(N)nc4)nc3n2CC(F)(F)F)C[C@H]1C [DS-7423],"Hyperglycaemia G3, n patients","[1]; 56 mg, Japanese cohort (56–96 mg group, n = 6)",1
same,"Diarrhoea G3, n patients",[1]; [5],1
same,"Hyperglycaemia G3, n patients",[1]; [5],1
same,"AST increased (TEAE), n patients",[1]; 160 mg Japanese cohort (n = 3),0
same,"Abdominal pain (TEAE), n patients",[1]; 160 mg Japanese cohort (n = 3),1
same,"Back pain (TEAE), n patients",[1]; 160 mg Japanese cohort (n = 3),0
same,"Blood creatinine increased (TEAE), n patients",[1]; 160 mg Japanese cohort (n = 3),0
same,"Constipation (TEAE), n patients",[1]; 160 mg Japanese cohort (n = 3),1
same,"Cough (TEAE), n patients",[1]; 160 mg Japanese cohort (n = 3),2
same,"Decreased appetite (TEAE), n patients",[1]; 160 mg Japanese cohort (n = 3),3
same,"Decreased appetite G3, n patients",[1]; 160 mg Japanese cohort (n = 3),1
same,"Dehydration (TEAE), n patients",[1]; 160 mg Japanese cohort (n = 3),0
same,"Diarrhoea (TEAE), n patients",[1]; 160 mg Japanese cohort (n = 3),2
same,"Diarrhoea G3, n patients",[1]; 160 mg Japanese cohort (n = 3),1
same,"Dry mouth (TEAE), n patients",[1]; 160 mg Japanese cohort (n = 3),0
same,"Dysgeusia (TEAE), n patients",[1]; 160 mg Japanese cohort (n = 3),2
same,"Dyspnea (TEAE), n patients",[1]; 160 mg Japanese cohort (n = 3),1
same,"Edema (TEAE), n patients",[1]; 160 mg Japanese cohort (n = 3),1
same,"Fatigue (TEAE), n patients",[1]; 160 mg Japanese cohort (n = 3),1
same,"Hyperglycaemia (TEAE), n patients",[1]; 160 mg Japanese cohort (n = 3),1 (1 G3)
same,"Hyperglycaemia G3, n patients",[1]; 160 mg Japanese cohort (n = 3),1 (1 G3)
same,"Lung infection/ pneumonia (TEAE), n patients",[1]; 160 mg Japanese cohort (n = 3),0
same,"Nausea (TEAE), n patients",[1]; 160 mg Japanese cohort (n = 3),3
same,"Pyrexia (TEAE), n patients",[1]; 160 mg Japanese cohort (n = 3),1
same,"Rash (TEAE), n patients",[1]; 160 mg Japanese cohort (n = 3),2
same,"Stomatitis (TEAE), n patients",[1]; 160 mg Japanese cohort (n = 3),2
same,"Vomiting (TEAE), n patients",[1]; 160 mg Japanese cohort (n = 3),2
same,"AST increased (TEAE), n patients",[1]; 240 mg Japanese cohort (n = 6),0
same,"Abdominal pain (TEAE), n patients",[1]; 240 mg Japanese cohort (n = 6),1
same,"Back pain (TEAE), n patients",[1]; 240 mg Japanese cohort (n = 6),1
same,"Blood creatinine increased (TEAE), n patients",[1]; 240 mg Japanese cohort (n = 6),0
same,"Constipation (TEAE), n patients",[1]; 240 mg Japanese cohort (n = 6),1
same,"Cough (TEAE), n patients",[1]; 240 mg Japanese cohort (n = 6),1
same,"Decreased appetite (TEAE), n patients",[1]; 240 mg Japanese cohort (n = 6),4
same,"Dehydration (TEAE), n patients",[1]; 240 mg Japanese cohort (n = 6),0
same,"Diarrhoea (TEAE), n patients",[1]; 240 mg Japanese cohort (n = 6),5
same,"Dry mouth (TEAE), n patients",[1]; 240 mg Japanese cohort (n = 6),1
same,"Dysgeusia (TEAE), n patients",[1]; 240 mg Japanese cohort (n = 6),3
same,"Dyspnea (TEAE), n patients",[1]; 240 mg Japanese cohort (n = 6),0
same,"Edema (TEAE), n patients",[1]; 240 mg Japanese cohort (n = 6),3
same,"Fatigue (TEAE), n patients",[1]; 240 mg Japanese cohort (n = 6),2
same,"Hyperglycaemia (TEAE), n patients",[1]; 240 mg Japanese cohort (n = 6),1 (1 G4)
same,"Hyperglycaemia G4, n patients",[1]; 240 mg Japanese cohort (n = 6),1 (1 G4)
same,"Lung infection/ pneumonia (TEAE), n patients",[1]; 240 mg Japanese cohort (n = 6),1 (1 G3)
same,"Lung infection/ pneumonia G3, n patients",[1]; 240 mg Japanese cohort (n = 6),1 (1 G3)
same,"Nausea (TEAE), n patients",[1]; 240 mg Japanese cohort (n = 6),6
same,"Pyrexia (TEAE), n patients",[1]; 240 mg Japanese cohort (n = 6),2
same,"Rash (TEAE), n patients",[1]; 240 mg Japanese cohort (n = 6),5
same,"Stomatitis (TEAE), n patients",[1]; 240 mg Japanese cohort (n = 6),6
same,"Vomiting (TEAE), n patients",[1]; 240 mg Japanese cohort (n = 6),3
same,"AST increased (TEAE), n patients",[1]; [6],0
same,"Abdominal pain (TEAE), n patients",[1]; [6],1
same,"Back pain (TEAE), n patients",[1]; [6],1
same,"Blood creatinine increased (TEAE), n patients",[1]; [6],1
same,"Constipation (TEAE), n patients",[1]; [6],3
same,"Cough (TEAE), n patients",[1]; [6],1
same,"Decreased appetite (TEAE), n patients",[1]; [6],7
same,"Dehydration (TEAE), n patients",[1]; [6],0
same,"Diarrhoea (TEAE), n patients",[1]; [6],6
same,"Dry mouth (TEAE), n patients",[1]; [6],0
same,"Dysgeusia (TEAE), n patients",[1]; [6],3
same,"Dyspnea (TEAE), n patients",[1]; [6],2
same,"Edema (TEAE), n patients",[1]; [6],2
same,"Fatigue (TEAE), n patients",[1]; [6],5
same,"Hyperglycaemia (TEAE), n patients",[1]; [6],0
same,"Lung infection/ pneumonia (TEAE), n patients",[1]; [6],0
same,"Nausea (TEAE), n patients",[1]; [6],6
same,"Pyrexia (TEAE), n patients",[1]; [6],0
same,"Rash (TEAE), n patients",[1]; [6],3
same,"Stomatitis (TEAE), n patients",[1]; [6],3
same,"Vomiting (TEAE), n patients",[1]; [6],4
same,"AST increased (TEAE), n patients",[1]; [7],1
same,"Abdominal pain (TEAE), n patients",[1]; [7],1
same,"Back pain (TEAE), n patients",[1]; [7],0
same,"Blood creatinine increased (TEAE), n patients",[1]; [7],0
same,"Constipation (TEAE), n patients",[1]; [7],1
same,"Cough (TEAE), n patients",[1]; [7],1
same,"Decreased appetite (TEAE), n patients",[1]; [7],2
same,"Dehydration (TEAE), n patients",[1]; [7],0
same,"Diarrhoea (TEAE), n patients",[1]; [7],4
same,"Dry mouth (TEAE), n patients",[1]; [7],1
same,"Dysgeusia (TEAE), n patients",[1]; [7],1
same,"Dyspnea (TEAE), n patients",[1]; [7],0
same,"Edema (TEAE), n patients",[1]; [7],1
same,"Fatigue (TEAE), n patients",[1]; [7],3
same,"Hyperglycaemia (TEAE), n patients",[1]; [7],2
same,"Lung infection/ pneumonia (TEAE), n patients",[1]; [7],0
same,"Nausea (TEAE), n patients",[1]; [7],1
same,"Pyrexia (TEAE), n patients",[1]; [7],0
same,"Rash (TEAE), n patients",[1]; [7],4
same,"Stomatitis (TEAE), n patients",[1]; [7],1
same,"Vomiting (TEAE), n patients",[1]; [7],1
same,Grade 3 DLT,"[1]; Japanese study, 240-mg cohort",lung infections and hyperglycaemia
same,MTD,"[1]; Japanese study, Asian patients",240 mg
same,Mean AUCtau,[2]; [8],21.86 ng·h/mL
same,Mean Cmax,[2]; [8],4 ng/mL
same,T1/2,[2]; [8],6 to 7 h
same,Tmax,[2]; [8],2 to 4 h
same,Mean AUCtau,[2]; [9],131 ng·h/mL
same,Mean Cmax,[2]; [9],20 ng/mL
same,T1/2,[2]; [9],6 to 7 h
same,Tmax,[2]; [9],2 to 4 h
same,Mean AUCtau,[2]; [10],133.5 ng·h/mL
same,Mean Cmax,[2]; [10],20 ng/mL
same,T1/2,[2]; [10],6 to 7 h
same,Tmax,[2]; [10],2 to 4 h
same,Mean AUCtau,[2]; [11],1180.5 ng·h/mL
same,Mean Cmax,[2]; [11],59 ng/mL
same,T1/2,[2]; [11],6 to 7 h
same,Tmax,[2]; [11],2 to 4 h
same,Mean AUCtau,[2]; [12],1458.2 ng·h/mL
same,Mean Cmax,[2]; [12],92.0 ng/mL
same,T1/2,[2]; [12],12 h
same,Tmax,[2]; [12],2 to 4 h
same,Patients with tumour shrinkage and durable disease control,advanced solid tumours [3],5
same,Patients with tumour shrinkage and durable disease control,advanced solid tumours [4],5
same,Hyperglycaemia (on-target effect),glucose,observed as early as 4 h after dosing
same,Akt phosphorylation in platelet-rich plasma,Akt phosphorylation,inhibited compared with that at baseline
